# Assays:
# Type in all cases: cell-based
# Settings in all cases: Gemcitabine alone, low dose 15 nM, 48 hours
# [1] = test system: Panc-1-Wt pancreatic cancer cells; experiment: Cell proliferation, Cell Titer kit proliferation assay
# Description: (§1) For cell proliferation, cytotoxicity, and cell survival measurements, […] were seeded in 96 wells plates in 100 μL of DMEM medium. Cells were incubated for 48H hours at 37° C. with an anti-STIM1 antibody targeting the C terminal of STIM1 (CDN3H4, Santa Cruz; HPA011088 or HPA012123 clones, Sigma). Cell proliferation was evaluated using the Cell Titer kit proliferation assay (Promega). Cytotoxicity was evaluated using the Cell Tox green cytotoxicity assay (Promega) and cell survival measured using the CCK8 kit from Sigma. All these kits were used following manufacturer recommendations and using a plate reader
# as §1, with “with 5 μg/ml of the” for “with an”, “Santa Cruz) alone, with 15 nM Gemcitabine alone” for “Santa Cruz; HPA011088”, “or with both 5 ug/ml of the anti-STIM1 clone CDN3H4 and 15 nM Gemcitabine. Relevant controls (isotype or/and DMSO treatments) were also realized.” for “or HPA012123 clones, Sigma).”
# [2] = test system: Panc-1-Wt pancreatic cancer cells; experiment: Cell survival, CCK8 kit
# Description: as §1
# as §1, with “with 5 μg/ml of the” for “with an”, “Santa Cruz) alone, with 15 nM Gemcitabine alone” for “Santa Cruz; HPA011088”, “or with both 5 ug/ml of the anti-STIM1 clone CDN3H4 and 15 nM Gemcitabine. Relevant controls (isotype or/and DMSO treatments) were also realized.” for “or HPA012123 clones, Sigma).”
# [3] = test system: Panc-1-Wt pancreatic cancer cells; experiment: Cytotoxicity, Cell Tox green cytotoxicity assay
# Description: as §1
# as §1, with “with 5 μg/ml of the” for “with an”, “Santa Cruz) alone, with 15 nM Gemcitabine alone” for “Santa Cruz; HPA011088”, “or with both 5 ug/ml of the anti-STIM1 clone CDN3H4 and 15 nM Gemcitabine. Relevant controls (isotype or/and DMSO treatments) were also realized.” for “or HPA012123 clones, Sigma).”
structure (smiles),measurement,setting,value
Nc1ccn([C@@H]2O[C@H](CO)[C@@H](O)C2(F)F)c(=O)n1 [Gemcitabine],proliferation of pancreatic cancer cells,[1],slightly but significantly reduce
same,survival of pancreatic cancer cells,[2],slightly but significantly reduce
same,cell cytotoxicity,[3],without inducing cell cytotoxicity
